Reference: patent US20030166648A1, “Felbamate derived compounds” (priority 2002, published 2003)

What was measured:
[1] = Stability of oxazinane-dione at relevant pH; format: physicochemical
Source text: It is anticipated, therefore, that the oxazinane-dione 9 is responsible for some aspects of felbamate's efficacy in vivo. As patients undergoing felbamate therapy for seizure control ingest large quantities of felbamate (grams per day), even a 1-2% conversion to a pharmacologically active metabolite could have significant effects. […] In light of the possibility that the oxazinane-dione 9 could be a metabolic precursor to the major human metabolite, acid carbamate 4, it may be formed in significant quantities (the acid carbamate was reported to represent ˜ 12% of a dose). […] Also included in this class are cyclic congeners 21 and 22, which may be formed from felbamate derivatives (see scheme II). Also included is 20, which may be an unknown metabolite of felbamate 1 and could be produced from felbamate derivative 12 by the cytochrome P450 metabolism.

[2] = LC/MS quantification of felbamate and metabolites in patient urine; format: in vivo, human; conditions: highest value; patient with total daily dose of 6.0 grams of felbamate
Description: Preparation of Patient Urine Samples.
Urine samples were obtained from patient volunteers undergoing felbamate therapy for control of epileptic seizures and under the care of physicians at either the University of Virginia (Charlottesville, Va.) or the EpiCare Center (Memphis, Tenn.). Urine samples were diluted four fold with distilled water (this was done prior to overnight shipment for samples requiring shipping) and placed in an orbital shaking water bath for ˜20 min at 37° C. to insure that all of the analytes were in solution. 500 μL of this diluted sample were removed and added to 100 μL of a mixture of the four deuterated internal standards. […] After mixing, 200 μL were removed and added to 20 μL of 20% H0Ac. […] This fraction was then analyzed by LC/MS without further manipulation.
LC/MS Analysis of Urine Samples for Metabolite Quantification.
LC/MS analysis was performed using a Waters 2690 HPLC equipped with an autosampler and a Waters 486 tunable absorbance detector. […] The post-column flow was directed through a Waters 486 tunable absorbance detector (10 μL flow cell, λ=214 nm) which was used for qualitative assessment of the sample and not for quantitation. […]
Quantification was achieved by integration of the peaks from the mass chromatogram for each analyte using software (Navigator 1.1) provided with the LCQ. […]

[3] = tested on: painful peripheral neuropathy; conditions: rat model of painful peripheral neuropathy; cited from earlier work

Structure (SMILES) | stability [1] | amount of felbamate excreted per mL of urine [2] | effect on measures of pain (in words) [3]
O=C1NC(=O)C(c2ccccc2)CO1 (stereo not drawn) [oxazinane-dione 9] | unstable | – | –
NC(=O)OCC(COC(N)=O)c1ccccc1 [felbamate, 2-phenyl-1,3-propanediol dicarbamate] | – | 10,064±515 nMoles/mL | significant reductions in all measures of pain
